Reference: ChEMBL document CHEMBL4316596, “Antimicrobial Peptides with High Proteolytic Resistance for Combating Gram-Negative Bacteria” (J Med Chem, 2019)

Experiments:
[1] = tested on: Salmonella typhimurium; test: Antimicrobial activity against Salmonella typhimurium C7731 after 24 hrs by NCCLS-protocol based assay; format: functional
[2] = tested on: Pseudomonas aeruginosa; test: Bactericidal activity against Pseudomonas aeruginosa CICC 21630 clinical isolates incubated for 4 hrs followed by culture spread on agar plates and cultured overnight; format: functional
[3] = tested on: Escherichia coli; test: Bactericidal activity against Escherichia coli ATCC 25922 incubated for 4 hrs followed by culture spread on agar plates and cultured overnight; format: functional
[4] = tested on: Escherichia coli; test: Antimicrobial activity against Escherichia coli 078 after 24 hrs by NCCLS-protocol based assay; format: functional
[5] = tested on: Escherichia coli; test: Antimicrobial activity against Escherichia coli ATCC 25922 after 24 hrs by NCCLS-protocol based assay; format: functional
[6] = tested on: Escherichia coli; test: Bactericidal activity against Escherichia coli 078 incubated for 4 hrs followed by culture spread on agar plates and cultured overnight; format: functional
[7] = tested on: Acinetobacter baumannii; test: Antimicrobial activity against Acinetobacter baumannii after 24 hrs by NCCLS-protocol based assay; format: functional
[8] = tested on: Klebsiella pneumoniae; test: Bactericidal activity against Klebsiella pneumoniae incubated for 4 hrs followed by culture spread on agar plates and cultured overnight; format: functional
[9] = tested on: Pseudomonas aeruginosa; test: Bactericidal activity against Pseudomonas aeruginosa 25349 clinical isolates incubated for 4 hrs followed by culture spread on agar plates and cultured overnight; format: functional
[10] = tested on: Pseudomonas aeruginosa; test: Bactericidal activity against Pseudomonas aeruginosa CICC 21625 clinical isolates incubated for 4 hrs followed by culture spread on agar plates and cultured overnight; format: functional
[11] = tested on: Pseudomonas aeruginosa; test: Antimicrobial activity against Pseudomonas aeruginosa CICC 21625 clinical isolates after 24 hrs by NCCLS-protocol based assay; format: functional
[12] = tested on: Pseudomonas aeruginosa; test: Antimicrobial activity against Pseudomonas aeruginosa CICC 21630 clinical isolates after 24 hrs by NCCLS-protocol based assay; format: functional
[13] = tested on: Escherichia coli; test: Bactericidal activity against Escherichia coli K88 incubated for 4 hrs followed by culture spread on agar plates and cultured overnight; format: functional
[14] = tested on: Pseudomonas aeruginosa; test: Antimicrobial activity against Pseudomonas aeruginosa ATCC 27853 after 24 hrs by NCCLS-protocol based assay; format: functional
[15] = tested on: Pseudomonas aeruginosa; test: Bactericidal activity against Pseudomonas aeruginosa 26305 clinical isolates incubated for 4 hrs followed by culture spread on agar plates and cultured overnight; format: functional
[16] = tested on: Salmonella typhimurium; test: Bactericidal activity against Salmonella typhimurium C7731 incubated for 4 hrs followed by culture spread on agar plates and cultured overnight; format: functional
[17] = tested on: Escherichia coli; test: Antimicrobial activity against Escherichia coli UB1005 after 24 hrs by NCCLS-protocol based assay; format: functional
[18] = tested on: Pseudomonas aeruginosa; test: Bactericidal activity against Pseudomonas aeruginosa PAO1 incubated for 4 hrs followed by culture spread on agar plates and cultured overnight; format: functional
[19] = tested on: Salmonella typhimurium; test: Bactericidal activity against Salmonella typhimurium ATCC 14028 incubated for 4 hrs followed by culture spread on agar plates and cultured overnight; format: functional
[20] = tested on: Acinetobacter baumannii; test: Bactericidal activity against Acinetobacter baumannii incubated for 4 hrs followed by culture spread on agar plates and cultured overnight; format: functional
[21] = tested on: Escherichia coli; test: Bactericidal activity against Escherichia coli K99 incubated for 4 hrs followed by culture spread on agar plates and cultured overnight; format: functional
[22] = tested on: Salmonella enterica subsp. enterica serovar Pullorum; test: (§1) Bactericidal activity against Salmonella pullorum C7913 incubated for 4 hrs followed by culture spread on agar plates and cultured overnight; format: functional
[23] = tested on: Escherichia coli; test: Bactericidal activity against Escherichia coli UB1005 incubated for 4 hrs followed by culture spread on agar plates and cultured overnight; format: functional
[24] = tested on: Klebsiella pneumoniae; test: Antimicrobial activity against Klebsiella pneumoniae after 24 hrs by NCCLS-protocol based assay; format: functional
[25] = tested on: Salmonella typhimurium; test: Antimicrobial activity against Salmonella typhimurium ATCC 14028 after 24 hrs by NCCLS-protocol based assay; format: functional
[26] = tested on: Pseudomonas aeruginosa; test: Antimicrobial activity against Pseudomonas aeruginosa PAO1 after 24 hrs by NCCLS-protocol based assay; format: functional
[27] = tested on: Escherichia coli; test: Antimicrobial activity against Escherichia coli K88 after 24 hrs by NCCLS-protocol based assay; format: functional
[28] = tested on: Pseudomonas aeruginosa; test: Ratio of MBC against Pseudomonas aeruginosa ATCC 27853 after 26 to 60 passages to MBC against Pseudomonas aeruginosa ATCC 27853; format: functional, organism-based
[29] = tested on: Escherichia coli; test: Antimicrobial activity against Escherichia coli K99 after 24 hrs by NCCLS-protocol based assay; format: functional
[30] = tested on: Pseudomonas aeruginosa; test: Antimicrobial activity against Pseudomonas aeruginosa 25349 clinical isolates after 24 hrs by NCCLS-protocol based assay; format: functional
[31] = tested on: Pseudomonas aeruginosa; test: Antimicrobial activity against Pseudomonas aeruginosa 26305 clinical isolates after 24 hrs by NCCLS-protocol based assay; format: functional
[32] = tested on: Salmonella enterica subsp. enterica serovar Pullorum; test: (§2) Antimicrobial activity against Salmonella pullorum C7913 after 24 hrs by NCCLS-protocol based assay; format: functional
[33] = tested on: Pseudomonas aeruginosa; test: Bactericidal activity against Pseudomonas aeruginosa ATCC 27853 incubated for 4 hrs followed by culture spread on agar plates and cultured overnight; format: functional
[34] = tested on: Escherichia coli; test: Bactericidal activity against Escherichia coli ATCC 25922 incubated for 4 hrs followed by culture spread on agar plates and cultured overnight in presence of 12.5% serum albumin; format: functional; conditions: ATCC 25922, 4 h, read-out: MBC>99.9
[35] = tested on: Escherichia coli; test: Bactericidal activity against Escherichia coli ATCC 25922 incubated for 4 hrs followed by culture spread on agar plates and cultured overnight in presence of CaCl2; format: functional; conditions: ATCC 25922, 4 h, read-out: MBC>99.9
[36] = tested on: Escherichia coli; test: Bactericidal activity against Escherichia coli ATCC 25922 incubated for 4 hrs followed by culture spread on agar plates and cultured overnight in presence of 25% serum albumin; format: functional; conditions: ATCC 25922, 4 h, read-out: MBC>99.9
[37] = tested on: Escherichia coli; test: Bactericidal activity against Escherichia coli ATCC 25922 incubated for 4 hrs followed by culture spread on agar plates and cultured overnight in presence of NaCl; format: functional; conditions: ATCC 25922, 4 h, read-out: MBC>99.9
[38] = tested on: Escherichia coli; test: Bactericidal activity against Escherichia coli ATCC 25922 incubated for 4 hrs followed by culture spread on agar plates and cultured overnight in presence of KCl; format: functional; conditions: ATCC 25922, 4 h, read-out: MBC>99.9
[39] = tested on: Escherichia coli; test: Bactericidal activity against Escherichia coli ATCC 25922 incubated for 4 hrs followed by culture spread on agar plates and cultured overnight in presence of FeCl3; format: functional; conditions: ATCC 25922, 4 h, read-out: MBC>99.9
[40] = tested on: Escherichia coli; test: Bactericidal activity against Escherichia coli ATCC 25922 incubated for 4 hrs followed by culture spread on agar plates and cultured overnight in presence of ZnCl2; format: functional; conditions: ATCC 25922, 4 h, read-out: MBC>99.9
[41] = tested on: Escherichia coli; test: Bactericidal activity against Escherichia coli ATCC 25922 incubated for 4 hrs followed by culture spread on agar plates and cultured overnight in presence of NH4Cl; format: functional; conditions: ATCC 25922, 4 h, read-out: MBC>99.9
[42] = as §1; format: functional, Salmonella enterica subsp. enterica serovar Pullorum; conditions: Salmonella enterica, C7913, 4 h; read-out: MBC>99.9
[43] = tested on: Escherichia coli; test: Bactericidal activity against Escherichia coli ATCC 25922 incubated for 4 hrs followed by culture spread on agar plates and cultured overnight in presence of MgCl2; format: functional; conditions: ATCC 25922, 4 h, read-out: MBC>99.9
[44] = tested on: Escherichia coli; test: Bactericidal activity against Escherichia coli ATCC 25922 incubated for 4 hrs followed by culture spread on agar plates and cultured overnight in presence of 50% serum albumin; format: functional; conditions: ATCC 25922, 4 h, read-out: MBC>99.9
[45] = as §2; format: functional, Salmonella enterica subsp. enterica serovar Pullorum; conditions: Salmonella enterica, C7913, 24 h
[46] = Salmonella enterica subsp. enterica serovar Typhimurium

Work on GENTAMICIN yielded an MIC>95 [1, 46] of 1 µM, an MBC>99.9 [2] of 2 µM and an MBC>99.9 [3] of 2 µM. It also gave an MIC>95 [4] of 0.25 µM, an MIC>95 [5] of 1 µM and an MBC>99.9 [6] of 0.5 µM. The MIC>95 [7] was 0.25 µM, the MBC>99.9 [8] was 0.5 µM and the MBC>99.9 [9] was 2 µM. The MBC>99.9 [10] was 1 µM, the MIC>95 [11] was 1 µM and the MIC>95 [12] was 1 µM. It also gave an MBC>99.9 [13] of 0.25 µM, an MIC>95 [14] of 1 µM and an MBC>99.9 [15] greater than 64 µM. It also gave an MBC>99.9 [16, 46] of 2 µM, an MIC>95 [17] of 0.25 µM and an MBC>99.9 [18] of 2 µM. For the same substance, the MBC>99.9 [19, 46] was 2 µM, the MBC>99.9 [20] was 0.5 µM and the MBC>99.9 [21] was 0.25 µM. It also gave an MBC>99.9 [22] of 1 µM, an MBC>99.9 [23] of 0.25 µM and an MIC>95 [24] of 0.5 µM. For the same substance, the MIC>95 [25, 46] was 1 µM, the MIC>95 [26] was 2 µM and the MIC>95 [27] was 0.125 µM. The Ratio [28] was 32, the MIC>95 [29] was 0.25 µM and the MIC>95 [30] was 2 µM. It also gave an MIC>95 [31] greater than 64 µM, an MIC>95 [32] of 1 µM and an MBC>99.9 [33] of 1 µM.
Substance H-LRPLLRPLLRPLLRPLLRPLLRPL-NH2 has an MBC [34] of 8 µM, an MIC95 ([1]; Salmonella enterica, C7731, 24 h) of 2 µM and an MBC ([2]; CICC 21630, 4 h, read-out: MBC>99.9) of 16 µM. It also gave an MBC ([3]; ATCC 25922, 4 h, read-out: MBC>99.9) of 2 µM, an MIC95 ([4]; Escherichia coli, 078, 24 h) of 2 µM and an MIC95 ([5]; ATCC 25922, 24 h) of 2 µM. The MBC ([6]; Escherichia coli, 078, 4 h, read-out: MBC>99.9) was 2 µM, the MBC [35] was greater than 128 µM and the MIC95 [7] was 2 µM. The MBC ([8]; read-out: MBC>99.9) was 8 µM, the MBC ([9]; Pseudomonas aeruginosa, 25349, 4 h, read-out: MBC>99.9) was 32 µM and the MBC ([10]; CICC 21625, 4 h, read-out: MBC>99.9) was 32 µM. For the same substance, the MIC95 ([11]; CICC 21625, 24 h) was 32 µM, the MIC95 ([12]; CICC 21630, 24 h) was 8 µM and the MBC [36] was 16 µM. For the same substance, the MBC ([13]; K88, 4 h, read-out: MBC>99.9) was 4 µM, the MIC95 ([14]; ATCC 27853, 24 h) was 8 µM and the MBC ([15]; Pseudomonas aeruginosa, 26305, 4 h, read-out: MBC>99.9) was 32 µM. The MBC ([16]; Salmonella enterica, C7731, 4 h, read-out: MBC>99.9) was 8 µM, the MIC95 ([17]; UB1005, 24 h) was 2 µM and the MBC ([18]; PAO1, 4 h, read-out: MBC>99.9) was 8 µM. For the same substance, the MBC ([19]; Salmonella enterica, ATCC 14028, 4 h, read-out: MBC>99.9) was 8 µM, the MBC [37] was 4 µM and the MBC [38] was 2 µM. For the same substance, the MBC ([20]; read-out: MBC>99.9) was 4 µM, the MBC ([21]; K99, 4 h, read-out: MBC>99.9) was 4 µM and the MBC [39] was 4 µM. For the same substance, the MBC [40] was 2 µM, the MBC [41] was 2 µM and the MBC [42] was 4 µM. For the same substance, the MBC ([23]; UB1005, 4 h, read-out: MBC>99.9) was 4 µM, the MIC95 [24] was 8 µM and the MIC95 ([25]; Salmonella enterica, ATCC 14028, 24 h) was 4 µM. For the same substance, the MIC95 ([26]; PAO1, 24 h) was 4 µM, the MIC95 ([27]; K88, 24 h) was 2 µM and the MBC [43] was 4 µM. It also gave an MIC95 ([29]; K99, 24 h) of 2 µM, an MIC95 ([30]; Pseudomonas aeruginosa, 25349, 24 h) of 32 µM and an MBC [44] of 32 µM. The MIC95 ([31]; Pseudomonas aeruginosa, 26305, 24 h) was 32 µM, the MIC95 [45] was 2 µM and the MBC ([33]; ATCC 27853, 4 h, read-out: MBC>99.9) was 16 µM.
